Laboratory results from PubChem BioAssay AID330 (DTP/NCI, 2004).
Several values for one entry are separate records, joined by “and”; a condition that tells them apart may be missing. Equal values may be shown once. Toxic doses and inconclusive results are not listed.

Tested on: P388 leukemia ip, CD2F1 mice, survival T/C
Assay: NCI In Vivo Anticancer Drug Screen. Data for tumor model P388 Leukemia (intraperitoneal) in CD2F1 (CDF1) mice
Details: endpoint: median survival time, higher = longer survival
How it was run: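 Mice carrying the transplanted tumor received test compound or vehicle. Survival was recorded in each group, and the value is the treated-group measurement divided by that of the vehicle-treated control group.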

[1] = dose: 12.5 mg/kg/injection, schedule: Q01DX005 (ip), vehicle: Klucel (hydroxypropylcellulose) (HPC)
[2] = dose: 25.0 mg/kg/injection, schedule: Q01DX005 (ip), vehicle: Klucel (hydroxypropylcellulose) (HPC)
[3] = dose: 50.0 mg/kg/injection, schedule: Q01DX005 (ip), vehicle: Klucel (hydroxypropylcellulose) (HPC)
[4] = dose: 60.0 mg/kg/injection, schedule: Q01DX005 (ip), vehicle: saline with Tween-80
[5] = dose: 120.0 mg/kg/injection, schedule: Q01DX005 (ip), vehicle: saline with Tween-80
[6] = dose: 240.0 mg/kg/injection, schedule: Q01DX005 (ip), vehicle: saline with Tween-80
[7] = dose: 100.0 mg/kg/injection, schedule: Q01DX005 (ip), vehicle: Klucel (hydroxypropylcellulose) (HPC)
[8] = dose: 200.0 mg/kg/injection, schedule: Q01DX005 (ip), vehicle: Klucel (hydroxypropylcellulose) (HPC)

O=C(NNc1ccccc1)c1ccccc1
T/C (dose: 3.13 mg/kg/injection, schedule: Q01DX009 (ip), vehicle: Klucel (hydroxypropylcellulose) (HPC)): 100 % of control | T/C (dose: 6.25 mg/kg/injection, schedule: Q01DX009 (ip), vehicle: Klucel (hydroxypropylcellulose) (HPC)): 98 % of control | T/C (dose: 12.5 mg/kg/injection, schedule: Q01DX009 (ip), vehicle: Klucel (hydroxypropylcellulose) (HPC)): 100 % of control | T/C (dose: 25.0 mg/kg/injection, schedule: Q01DX009 (ip), vehicle: Klucel (hydroxypropylcellulose) (HPC)): 100 % of control | T/C (dose: 50.0 mg/kg/injection, schedule: Q01DX009 (ip), vehicle: Klucel (hydroxypropylcellulose) (HPC)): 113 % of control

COC(=O)C1C(O)CCC2CN3CCc4c([nH]c5cc(OC)ccc45)C3CC21 (stereo not given)
T/C (dose: 20.0 mg/kg/injection, schedule: Q01DX005 (ip), vehicle: DMSO): 104 % of control | T/C (dose: 40.0 mg/kg/injection, schedule: Q01DX005 (ip), vehicle: DMSO): 111 % of control | T/C (dose: 80.0 mg/kg/injection, schedule: Q01DX005 (ip), vehicle: DMSO): 102 % of control | T/C (dose: 160.0 mg/kg/injection, schedule: Q01DX005 (ip), vehicle: DMSO): 100 % of control

C1=C(N2CCOCC2)N(c2ccccc2)c2ccccc2N=C1N1CCCC1
T/C [1]: 100 % of control | T/C [2]: 91 % of control | T/C [3]: 103 % of control and 96 % of control

O=C1C=CC(=NBr)C=C1
T/C [4]: 108 % of control | T/C [5]: 110 % of control | T/C [6]: 108 % of control

O=C1c2cc(F)ccc2OC2CCON12 (stereo not given)
T/C (dose: 100.0 mg/kg/injection, schedule: Q01DX001 (ip), vehicle: Klucel (hydroxypropylcellulose) (HPC)): 97 % of control | T/C (dose: 200.0 mg/kg/injection, schedule: Q01DX001 (ip), vehicle: Klucel (hydroxypropylcellulose) (HPC)): 97 % of control | T/C (dose: 400.0 mg/kg/injection, schedule: Q01DX001 (ip), vehicle: Klucel (hydroxypropylcellulose) (HPC)): 103 % of control

CC1=C(C(N)=O)C(c2ccc([N+](=O)[O-])cc2)NC(=S)N1 (stereo not given)
T/C (dose: 60.0 mg/kg/injection, schedule: Q01DX005 (ip), vehicle: Klucel (hydroxypropylcellulose) (HPC)): 92 % of control | T/C (dose: 120.0 mg/kg/injection, schedule: Q01DX005 (ip), vehicle: Klucel (hydroxypropylcellulose) (HPC)): 90 % of control | T/C (dose: 240.0 mg/kg/injection, schedule: Q01DX005 (ip), vehicle: Klucel (hydroxypropylcellulose) (HPC)): 92 % of control

CC(C)NC(=O)OCc1c(COC(=O)NC(C)C)c2cccn2c2c1cnn2-c1ccccc1
T/C (dose: 30.0 mg/kg/injection, schedule: Q01DX005 (ip), vehicle: saline with Tween-80): 87 % of control | T/C [4]: 89 % of control | T/C [5]: 89 % of control and 91 % of control | T/C [6]: 96 % of control

Nc1cccc(CCCCc2cccc(S(=O)(=O)F)c2)c1
T/C (dose: 50.0 mg/kg/injection, schedule: Q01DX009 (ip), vehicle: saline sonified): 100 % of control | T/C (dose: 100.0 mg/kg/injection, schedule: Q01DX009 (ip), vehicle: saline sonified): 109 % of control | T/C (dose: 200.0 mg/kg/injection, schedule: Q01DX009 (ip), vehicle: saline sonified): 109 % of control

CCCCN(CCCC)CCOc1ccc(/C(CC)=C(/CC)c2ccc(OCCN(CCCC)CCCC)cc2)cc1
T/C (dose: 12.5 mg/kg/injection, schedule: Q01DX005 (ip), vehicle: saline): 100 % of control | T/C (dose: 25.0 mg/kg/injection, schedule: Q01DX005 (ip), vehicle: saline): 87 % of control | T/C (dose: 50.0 mg/kg/injection, schedule: Q01DX005 (ip), vehicle: saline): 100 % of control and 102 % of control

COc1cc2c(c(O)c1O)-c1ccc(OC)c(=O)cc1C(NC(C)=O)CC2 (stereo not given)
T/C (dose: 1.25 mg/kg/injection, schedule: Q01DX009 (ip), vehicle: water): 97 % of control | T/C (dose: 2.5 mg/kg/injection, schedule: Q01DX009 (ip), vehicle: water): 97 % of control | T/C (dose: 5.0 mg/kg/injection, schedule: Q01DX009 (ip), vehicle: water): 100 % of control | T/C (dose: 10.0 mg/kg/injection, schedule: Q01DX009 (ip), vehicle: water): 100 % of control | T/C (dose: 20.0 mg/kg/injection, schedule: Q01DX009 (ip), vehicle: water): 97 % of control | T/C (dose: 40.0 mg/kg/injection, schedule: Q01DX009 (ip), vehicle: distilled water + Tween-80): 108 % of control | T/C (dose: 80.0 mg/kg/injection, schedule: Q01DX009 (ip), vehicle: distilled water + Tween-80): 122 % of control

C=CC(C)(C)c1ccc(O)c(CC=C(C)C)c1
T/C [1]: 100 % of control | T/C [2]: 102 % of control | T/C [3]: 102 % of control

COC(=O)NC1=CCC(C(C)(C)C)CC1 (stereo not given)
T/C [2]: 108 % of control | T/C [3]: 113 % of control | T/C [7]: 106 % of control | T/C [8]: 103 % of control

COc1ccc(N=c2nc3n4c(c(Br)cc(Br)c4n2)NC(C(Br)(Br)Br)=N3)cc1
T/C [4]: 90 % of control | T/C [5]: 92 % of control | T/C [6]: 100 % of control

C[C@@H]1C[C@H](C)OC(CCl)O1 (stereo not given in full)
T/C (dose: 60.0 mg/kg/injection, schedule: Q01DX005 (ip), vehicle: saline): 100 % of control | T/C (dose: 120.0 mg/kg/injection, schedule: Q01DX005 (ip), vehicle: saline): 102 % of control | T/C (dose: 240.0 mg/kg/injection, schedule: Q01DX005 (ip), vehicle: saline): 98 % of control

O=C/C=C/c1ccc([N+](=O)[O-])cc1
T/C (dose: 25.0 mg/kg/injection, schedule: Q04DX003 (ip), vehicle: saline with Tween-80): 100 % of control | T/C (dose: 50.0 mg/kg/injection, schedule: Q04DX003 (ip), vehicle: saline with Tween-80): 110 % of control | T/C (dose: 100.0 mg/kg/injection, schedule: Q04DX003 (ip), vehicle: saline with Tween-80): 105 % of control

CCOC(=O)N1C=CC(c2ccccc2)=CC2ON=C(c3c(C)cc(C)cc3C)N21 (stereo not given)
T/C (dose: 50.0 mg/kg/injection, schedule: Q01DX009 (ip), vehicle: saline): 106 % of control | T/C (dose: 100.0 mg/kg/injection, schedule: Q01DX009 (ip), vehicle: saline): 108 % of control | T/C (dose: 200.0 mg/kg/injection, schedule: Q01DX009 (ip), vehicle: saline): 99 % of control

Cn1c(=S)[nH]c2sc3c(c2c1=O)CCCCC3
T/C [4]: 101 % of control | T/C [5]: 97 % of control | T/C [6]: 90 % of control

CC(SCCCCCCCCCCSC(C)C(=O)O)C(=O)O (stereo not given)
T/C [3]: 93 % of control | T/C [7]: 98 % of control | T/C [8]: 95 % of control

CN(C)C1C(O)C2Oc3c(cc(O)c4c3C(=O)c3cc5c(c(O)c3C4=O)C(OCCBr)CC(C)(O)C5)C(C)(O2)C1O (stereo not given)
T/C (dose: 2.0 mg/kg/injection, schedule: Q01DX009 (ip), vehicle: other): 150 % of control | T/C (dose: 4.0 mg/kg/injection, schedule: Q01DX009 (ip), vehicle: other): 154 % of control | T/C (dose: 8.0 mg/kg/injection, schedule: Q01DX009 (ip), vehicle: other): 157 % of control | T/C (dose: 16.0 mg/kg/injection, schedule: Q01DX009 (ip), vehicle: other): 159 % of control

CC(C)c1ccc(C(=O)C2C(=O)C=C(c3ccc(C(C)C)cc3)OC2=O)cc1 (stereo not given)
T/C (dose: 100.0 mg/kg/injection, schedule: Q01DX001 (ip), vehicle: saline): 105 % of control | T/C (dose: 200.0 mg/kg/injection, schedule: Q01DX001 (ip), vehicle: saline): 108 % of control | T/C (dose: 400.0 mg/kg/injection, schedule: Q01DX001 (ip), vehicle: saline): 118 % of control

Nc1n[n+](-c2cccc([N+](=O)[O-])c2)no1
T/C (dose: 3.13 mg/kg/injection, schedule: Q01DX009 (ip), vehicle: other): 113 % of control | T/C (dose: 3.13 mg/kg/injection, schedule: Q01DX009 (ip), vehicle: water): 106 % of control | T/C (dose: 6.25 mg/kg/injection, schedule: Q01DX009 (ip), vehicle: other): 113 % of control | T/C (dose: 6.25 mg/kg/injection, schedule: Q01DX009 (ip), vehicle: water): 110 % of control | T/C (dose: 25.0 mg/kg/injection, schedule: Q01DX009 (ip), vehicle: water): 121 % of control | T/C (dose: 50.0 mg/kg/injection, schedule: Q01DX009 (ip), vehicle: other): 113 % of control

CC(C)C(=O)c1ccco1
T/C (dose: 3.13 mg/kg/injection, schedule: Q01DX009 (ip), vehicle: saline with Tween-80): 90 % of control | T/C (dose: 6.25 mg/kg/injection, schedule: Q01DX009 (ip), vehicle: saline with Tween-80): 100 % of control | T/C (dose: 12.5 mg/kg/injection, schedule: Q01DX009 (ip), vehicle: saline with Tween-80): 100 % of control

COC(=O)Cc1ccccc1-n1nccc1S(C)=O (stereo not given)
T/C [4]: 109 % of control | T/C [5]: 104 % of control | T/C [6]: 106 % of control

COc1cccc([N+]([O-])=NC#N)c1
T/C (dose: 12.5 mg/kg/injection, schedule: Q04DX003 (ip), vehicle: Klucel (hydroxypropylcellulose) (HPC)): 105 % of control | T/C (dose: 25.0 mg/kg/injection, schedule: Q04DX003 (ip), vehicle: Klucel (hydroxypropylcellulose) (HPC)): 115 % of control | T/C (dose: 50.0 mg/kg/injection, schedule: Q04DX003 (ip), vehicle: Klucel (hydroxypropylcellulose) (HPC)): 107 % of control and 90 % of control
